Measured values taken from PubChem BioAssay AID624300 (Southern Research Specialized Biocontainment Screening …, 2012).

Tested on: HeLa viability, CellTiter-Glo luminescence, 24 h
Experiment: viability loss in HeLa cells – cytotoxicity control for MgcRacGAP inhibitor project, dose response (AID 624300)

Compound: C#CCOCCOCCOCCNc1nc(N2CCN(C(=O)CCCCCCCCCCNC(=O)[C@@H](CCSC)n3cc(CCO)nn3)CC2)nc(N2CCN(C(=O)CCCCCCCCCCNC(=O)[C@H](CO)n3cc(CCCCCN)nn3)CC2)n1
- CC50: 85.3 µM
